Measurements published in US20230416248A1, “COMPOUNDS AND USES THEREOF” (Foghorn Therapeutics Inc., priority 2020, published 2023).
Where two headings read alike, the source gives them in different places.

What was measured:
BRG-1 = biological target: T1, BRG-1 (Homo sapiens, UniProt P51532); experiment: ATPase catalytic activity of BRG-1, ADP-Glo in vitro biochemical assay; conditions: 30 nM BRG-1, 400 μM ATP, read-out: BRG1 IC50
T1 construct: made in house; host or cells: High Five insect cells
Procedure: (§1) The ATPase catalytic activity of BRM or BRG-1 was measured by an in vitro biochemical assay using ADP-Glo™ (Promega, V9102). The ADP-Glo™ kinase assay is performed in two steps once the reaction is complete. The first step is to deplete any unconsumed ATP in the reaction. The second step is to convert the reaction product ADP to ATP, which will be utilized by the luciferase to generate luminesce and be detected by a luminescence reader, such as Envision.
Then, following addition of 5 μL of ADP-Glo™ Reagent provided in the kit, the reaction incubates at room temperature for 40 minutes. Then, 10 μL of Kinase Detection Reagent provided in the kit is added to convert ADP to ATP, and the reaction incubates at room temperature for 60 minutes. Finally, luminescence measurement is collected with a plate-reading luminometer, such as Envision.

BRM = biological target: T2, BRM (Homo sapiens, UniProt P51531); experiment: ATPase catalytic activity of BRM, ADP-Glo in vitro biochemical assay; conditions: for IC50: 30 nM BRM, 400 μM ATP; for Ratio* (BRG1 IC50 (μM) divided by BRM IC50 (μM)): selectivity ratio BRG1 IC50 / BRM IC50
T2 construct: made in house; host or cells: High Five insect cells
Procedure: as §1
The assay reaction mixture ([…]) contains 30 nM of BRM or BRG-1, 20 nM salmon sperm DNA (from Invitrogen, UfraPure™ Salmon Sperm DNA Solution, cat #15632011), and 400 μM of ATP in the ATPase assay buffer, which comprises of 20 mM Tris, pH 8, 20 mM MgCl2, 50 mM NaCl, 0.1% Tween-20, and 1 mM fresh DTT (Piercer™ DTT (Dithiothreitol), cat #20290). The reaction is initiated by the addition of the 2.5 μL ATPase solution to 2.5 μL ATP/DNA solution on low volume white Proxiplate-384 plus plate (PerkinElmer, cat #6008280) and incubates at room temperature for 1 hour. Then, following addition of 5 μL of ADP-Glo™ Reagent provided in the kit, the reaction incubates at room temperature for 40 minutes. Then, 10 μL of Kinase Detection Reagent provided in the kit is added to convert ADP to ATP, and the reaction incubates at room temperature for 60 minutes. Finally, luminescence measurement is collected with a plate-reading luminometer, such as Envision.

[1] = ATPase catalytic activity, ADP-Glo

T2 sequence (P51531 whole entry): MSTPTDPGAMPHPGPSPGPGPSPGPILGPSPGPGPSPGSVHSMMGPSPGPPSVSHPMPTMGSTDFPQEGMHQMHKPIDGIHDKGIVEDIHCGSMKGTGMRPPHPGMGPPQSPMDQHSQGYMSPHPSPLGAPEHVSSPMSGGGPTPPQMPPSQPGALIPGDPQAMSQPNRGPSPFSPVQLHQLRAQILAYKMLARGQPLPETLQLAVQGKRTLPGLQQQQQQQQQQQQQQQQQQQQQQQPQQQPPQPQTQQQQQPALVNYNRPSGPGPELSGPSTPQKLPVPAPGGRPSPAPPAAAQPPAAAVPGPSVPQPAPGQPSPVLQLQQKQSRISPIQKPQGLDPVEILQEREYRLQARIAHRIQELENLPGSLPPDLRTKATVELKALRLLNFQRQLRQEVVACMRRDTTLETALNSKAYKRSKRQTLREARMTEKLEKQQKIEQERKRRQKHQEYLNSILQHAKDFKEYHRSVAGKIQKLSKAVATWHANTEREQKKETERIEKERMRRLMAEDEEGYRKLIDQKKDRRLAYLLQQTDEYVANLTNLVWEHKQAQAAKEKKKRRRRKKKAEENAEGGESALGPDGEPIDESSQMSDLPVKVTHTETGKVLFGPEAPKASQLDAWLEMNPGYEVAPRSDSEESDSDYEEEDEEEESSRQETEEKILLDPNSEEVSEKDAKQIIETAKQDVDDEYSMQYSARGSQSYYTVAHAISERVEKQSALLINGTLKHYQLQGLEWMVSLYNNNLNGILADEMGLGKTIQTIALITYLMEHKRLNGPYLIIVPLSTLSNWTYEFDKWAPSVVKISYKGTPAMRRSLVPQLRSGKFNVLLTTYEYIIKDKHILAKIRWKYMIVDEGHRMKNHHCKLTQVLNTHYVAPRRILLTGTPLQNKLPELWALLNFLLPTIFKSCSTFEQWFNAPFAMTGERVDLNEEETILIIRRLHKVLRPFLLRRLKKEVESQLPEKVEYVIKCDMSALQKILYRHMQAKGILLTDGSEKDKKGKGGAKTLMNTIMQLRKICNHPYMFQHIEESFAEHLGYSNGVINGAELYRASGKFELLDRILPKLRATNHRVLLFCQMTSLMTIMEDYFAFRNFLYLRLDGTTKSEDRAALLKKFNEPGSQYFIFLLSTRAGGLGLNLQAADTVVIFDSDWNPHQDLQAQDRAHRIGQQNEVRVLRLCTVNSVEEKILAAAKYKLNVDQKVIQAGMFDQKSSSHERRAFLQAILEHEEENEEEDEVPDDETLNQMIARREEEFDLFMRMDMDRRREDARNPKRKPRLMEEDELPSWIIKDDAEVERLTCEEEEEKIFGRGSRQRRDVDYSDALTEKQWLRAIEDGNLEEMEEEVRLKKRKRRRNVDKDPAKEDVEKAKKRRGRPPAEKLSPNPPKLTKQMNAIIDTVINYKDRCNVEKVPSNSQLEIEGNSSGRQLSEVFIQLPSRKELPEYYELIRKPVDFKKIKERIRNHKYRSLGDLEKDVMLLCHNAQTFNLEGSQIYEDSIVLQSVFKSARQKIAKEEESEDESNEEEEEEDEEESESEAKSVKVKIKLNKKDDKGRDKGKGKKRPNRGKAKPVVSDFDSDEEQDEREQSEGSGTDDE
T1 sequence (P51532 whole entry): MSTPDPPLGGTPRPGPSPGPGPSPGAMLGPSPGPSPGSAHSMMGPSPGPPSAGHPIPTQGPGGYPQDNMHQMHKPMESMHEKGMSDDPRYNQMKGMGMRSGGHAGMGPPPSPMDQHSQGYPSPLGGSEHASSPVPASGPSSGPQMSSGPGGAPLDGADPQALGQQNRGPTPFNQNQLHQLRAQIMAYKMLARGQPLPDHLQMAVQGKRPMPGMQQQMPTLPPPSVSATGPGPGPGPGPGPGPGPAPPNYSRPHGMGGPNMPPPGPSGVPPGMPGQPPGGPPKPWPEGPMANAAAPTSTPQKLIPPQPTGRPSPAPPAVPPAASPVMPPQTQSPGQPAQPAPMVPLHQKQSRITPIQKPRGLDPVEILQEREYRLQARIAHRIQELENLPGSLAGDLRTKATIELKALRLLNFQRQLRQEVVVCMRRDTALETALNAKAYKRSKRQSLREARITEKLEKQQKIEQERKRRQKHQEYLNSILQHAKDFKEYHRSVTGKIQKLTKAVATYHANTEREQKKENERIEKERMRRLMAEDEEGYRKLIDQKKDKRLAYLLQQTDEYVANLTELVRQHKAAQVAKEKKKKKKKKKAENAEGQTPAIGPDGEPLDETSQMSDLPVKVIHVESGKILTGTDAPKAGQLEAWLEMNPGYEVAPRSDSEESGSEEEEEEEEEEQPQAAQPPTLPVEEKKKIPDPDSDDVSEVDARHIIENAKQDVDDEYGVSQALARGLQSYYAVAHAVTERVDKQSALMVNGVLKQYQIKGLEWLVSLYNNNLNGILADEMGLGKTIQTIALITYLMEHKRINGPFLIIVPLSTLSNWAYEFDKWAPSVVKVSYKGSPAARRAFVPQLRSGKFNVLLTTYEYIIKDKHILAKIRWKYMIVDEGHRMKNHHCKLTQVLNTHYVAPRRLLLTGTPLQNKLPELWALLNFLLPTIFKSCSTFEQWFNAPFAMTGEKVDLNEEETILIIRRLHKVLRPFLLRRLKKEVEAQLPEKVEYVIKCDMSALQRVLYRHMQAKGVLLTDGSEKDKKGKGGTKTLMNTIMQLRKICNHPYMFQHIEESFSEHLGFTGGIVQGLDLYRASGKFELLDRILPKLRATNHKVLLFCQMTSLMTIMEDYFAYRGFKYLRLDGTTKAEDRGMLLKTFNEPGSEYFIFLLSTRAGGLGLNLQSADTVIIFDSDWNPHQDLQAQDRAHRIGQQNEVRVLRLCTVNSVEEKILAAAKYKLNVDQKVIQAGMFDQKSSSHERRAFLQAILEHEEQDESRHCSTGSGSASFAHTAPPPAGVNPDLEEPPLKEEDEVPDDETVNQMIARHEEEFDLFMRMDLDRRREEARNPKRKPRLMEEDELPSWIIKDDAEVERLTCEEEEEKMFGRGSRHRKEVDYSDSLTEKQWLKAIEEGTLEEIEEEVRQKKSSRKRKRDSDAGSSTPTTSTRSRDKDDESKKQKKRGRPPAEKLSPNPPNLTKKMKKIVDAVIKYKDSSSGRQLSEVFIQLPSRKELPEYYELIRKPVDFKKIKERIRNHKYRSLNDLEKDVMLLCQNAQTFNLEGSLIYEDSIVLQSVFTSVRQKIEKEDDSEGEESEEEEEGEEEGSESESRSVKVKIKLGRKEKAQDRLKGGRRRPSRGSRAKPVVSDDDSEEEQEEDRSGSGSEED

Compound	IC50 (BRG-1; ADP-Glo ATPase assay)	IC50 (BRM; ADP-Glo ATPase assay)	Ratio* (BRG1 IC50 (μM) divided by BRM IC50 (μM)) (BRM)	other results
C[C@@H]1CN(c2cccc(-c3ccc4cnc(CNC(=O)c5cnc6c(c5)S(=O)(=O)CCC5CC65)cc4n3)n2)C[C@H](C)O1 (mixture of isomers) [Compound 528]	–	–	–	IC50 (BRG-1; [1]): 33.6 nM; IC50 (BRM; [1]): 7.9 nM; Ratio* (BRM; ratio of BRG1 IC50 to BRM IC50): 4.24
CC1COCc2ccc(C(=O)NCc3cc4nc(-c5cccc(N6CCC6)n5)ccc4cn3)cc2S1(=O)=O (single isomer, unassigned) [Compound 197]	244 nM	19.3 nM	12.64	–
CC1COCc2ccc(C(=O)NCc3cc4nc(-c5cccc(N6CCC6)n5)ccc4cn3)cc2S1(=O)=O (single isomer, unassigned) [Compound 199]	2410 nM	252 nM	9.56	–
C[C@@H]1CN(c2cccc(-c3ccc4cnc(CNC(=O)c5ccc6c(c5)S(=O)(=O)[C@@H](C)CCO6)cc4n3)n2)C[C@H](C)O1 [Compound 15]	51.1 nM	7.5 nM	6.80	–
C[C@@H]1CN(c2cccc(-c3ccc4cnc(CNC(=O)c5cc(F)c6c(c5)S(=O)(=O)CCCO6)cc4n3)n2)C[C@H](C)O1 [Compound 37]	85 nM	8.6 nM	9.89	–
C[C@@H]1CN(c2cccc(-c3ccc4nnc(CNC(=O)c5ccc(C(F)F)c(S(C)(=O)=O)c5)cc4n3)n2)C[C@H](C)O1 [Compound 40]	88.4 nM	8.9 nM	–	–
C[C@@H]1CN(c2cccc(-c3cnc4cnc(CNC(=O)c5ccc(Cl)c(S(C)(=O)=O)c5)cc4n3)n2)C[C@H](C)O1 [Compound 41]	194 nM	18.1 nM	10.70	–
CO[C@H]1C[C@H](N(C)c2cccc(-c3ccc4cnc(CNC(=O)c5ccc6c(c5)S(=O)(=O)CCOC6)cc4n3)n2)C1 [Compound 42]	127 nM	17.3 nM	7.37	–
Cn1ccc2c(-c3ccc4cnc(CNC(=O)c5ccc6c(c5)S(=O)(=O)CCOC6)cc4n3)ccc(Cl)c21 [Compound 43]	185 nM	19.8 nM	9.33	–
COC(C)(C)CN(C)c1cccc(-c2ccc3cnc(CNC(=O)c4ccc5c(c4)S(=O)(=O)CCOC5)cc3n2)n1 [Compound 44]	694 nM	90.5 nM	7.67	–
C[C@@H]1C=C(c2cccc(-c3ccc4cnc(CNC(=O)c5ccc6c(c5)S(=O)(=O)CCOC6)cc4n3)n2)C[C@H](C)O1 [Compound 45]	19.8 nM	5.1 nM	3.87	–
C[C@@H]1CC(c2cccc(-c3ccc4cnc(CNC(=O)c5ccc6c(c5)S(=O)(=O)CCOC6)cc4n3)n2)=C[C@H](C)O1 [Compound 46]	45.9 nM	9.3 nM	4.92	–
O=C(NCc1cc2nc(N3CCc4cccnc43)ccc2cn1)c1ccc2c(c1)S(=O)(=O)CCOC2 [Compound 47]	457 nM	74.5 nM	6.12	–
CC1CS(=O)(=O)c2cc(C(=O)NCc3cc4nc(-c5cccc(N6C[C@@H](C)O[C@@H](C)C6)n5)ccc4cn3)ccc2CO1 (some centres unmarked) [Compound 48]	1840 nM	294 nM	6.26	–
CCOc1cccc(-c2ccc3cnc(CNC(=O)c4cc(F)c5c(c4)S(=O)(=O)CCOC5)cc3n2)n1 [Compound 49]	455 nM	24.8 nM	18.33	–
O=C(NCc1cc2nc(N3CCc4ccccc43)ccc2cn1)c1ccc2c(c1)S(=O)(=O)CCOC2 [Compound 50]	1520 nM	147 nM	–	–
C[C@@H]1CN(c2cccc(-c3ccc4cnc(CNC(=O)c5ccc6c(c5)S(=O)(=O)CCN(C)C6)cc4n3)n2)C[C@H](C)O1 [Compound 51]	200 nM	34.9 nM	5.74	–
O=C(NCc1cc2nc(N3CCCc4ccncc43)ccc2cn1)c1ccc2c(c1)S(=O)(=O)CCOC2 [Compound 52]	716 nM	76 nM	9.43	–

Compound	IC50 (BRG-1; ADP-Glo ATPase assay)	IC50 (BRM; ADP-Glo ATPase assay)	Ratio* (BRG1 IC50 (μM) divided by BRM IC50 (μM)) (BRM)	other results
C[C@@H]1CN(c2cccc(-c3ccc4cnc(CNC(=O)c5ccc6c(c5)S(=O)(=O)CCCO6)cc4n3)n2)C[C@H](C)O1 [Compound 53]	116 nM	11.7 nM	–	–
CO[C@@H](c1ccc2c(n1)N(c1ccc3cnc(CNC(=O)c4ccc5c(c4)S(=O)(=O)CCOC5)cc3n1)CCC2)C1CC1 [Compound 663]	–	–	–	IC50 (BRM; [1]): 673 nM; Ratio* (BRM; ratio of BRG1 IC50 to BRM IC50): 7.43
CO[C@H](c1ccc2c(n1)N(c1ccc3cnc(CNC(=O)c4ccc5c(c4)S(=O)(=O)CCOC5)cc3n1)CCC2)C1CC1 [Compound 664]	–	–	–	IC50 (BRM; [1]): 1750 nM; Ratio* (BRM; ratio of BRG1 IC50 to BRM IC50): 2.86
O=C(NCc1cc2nc(-c3cccc4c3CN(C3COC3)CC4)ccc2cn1)c1ccc2c(c1)S(=O)(=O)CCOC2 [Compound 671]	–	–	–	IC50 (BRM; [1]): 4000 nM; Ratio* (BRM; ratio of BRG1 IC50 to BRM IC50): 1.25
COCCN1CCc2cccc(-c3ccc4cnc(CNC(=O)c5ccc6c(c5)S(=O)(=O)CCOC6)cc4n3)c2C1 [Compound 674]	–	–	–	IC50 (BRM; [1]): 3780 nM; Ratio* (BRM; ratio of BRG1 IC50 to BRM IC50): 1.32
O=C(NCc1cc2nc(-c3cccc4c3CN(CC(F)F)CC4)ccc2cn1)c1ccc2c(c1)S(=O)(=O)CCOC2 [Compound 675]	–	–	–	IC50 (BRM; [1]): 884 nM; Ratio* (BRM; ratio of BRG1 IC50 to BRM IC50): 5.66
C[C@@H]1CN(c2cccc(-c3ccc4cnc(CNC(=O)c5ccc6c(c5)S(=O)(=O)[C@H](C)CO6)cc4n3)n2)C[C@H](C)O1 [Compound 684]	–	–	–	IC50 (BRM; [1]): 484 nM; Ratio* (BRM; ratio of BRG1 IC50 to BRM IC50): 10.33
O=C(NCc1cc2nc(-c3cccc4c3CN(C3CC3)CC4)ccc2cn1)c1ccc2c(c1)S(=O)(=O)CCOC2 [Compound 685]	–	–	–	IC50 (BRM; [1]): 715 nM; Ratio* (BRM; ratio of BRG1 IC50 to BRM IC50): 6.99
CS(=O)(=O)c1cc(C(=O)NCc2cc3nc(N4CCCc5ccc(C6CC6)nc54)ccc3cn2)cnc1C(F)F [Compound 721]	–	188 nM	–	Ratio* (BRM; ratio BRG1 IC50 / BRM IC50): 26.60
O=C(NCc1cc2nc(C34CC3CCc3cccnc34)ccc2cn1)c1ccc2c(c1)S(=O)(=O)CCOC2 (centres unmarked) [Compound 762]	–	–	–	Ratio* (BRM; ratio BRG1 IC50 / BRM IC50): 1.00
O=C(NCc1cc2cc(N3CCOc4cc(C5CC5)cnc43)ncc2cn1)c1ccc2c(c1)S(=O)(=O)CCOC2 [Compound 811]	–	–	–	Ratio* (BRM; ratio BRG1 IC50 / BRM IC50): 1.00
Cn1cccc(-c2ccc3cnc(CNC(=O)c4ccc5c(c4)S(=O)(=O)CCOC5)cc3n2)c1=O [Compound 826]	–	3200 nM	–	Ratio* (BRM; ratio BRG1 IC50 / BRM IC50): 1.56
COCCN(c1cc(C2CC2)ccn1)c1ccc2cnc(CNC(=O)c3ccc4c(c3)S(=O)(=O)CCOC4)cc2n1 [Compound 829]	–	1660 nM	–	Ratio* (BRM; ratio BRG1 IC50 / BRM IC50): 3.02
COCCN(c1ccc(C2CC2)cn1)c1ccc2cnc(CNC(=O)c3ccc4c(c3)S(=O)(=O)CCOC4)cc2n1 [Compound 833]	–	2320 nM	–	Ratio* (BRM; ratio BRG1 IC50 / BRM IC50): 2.15
COCCN(c1ccnc(C2CC2)n1)c1ccc2cnc(CNC(=O)c3ccc4c(c3)S(=O)(=O)CCOC4)cc2n1 [Compound 839]	–	–	–	Ratio* (BRM; ratio BRG1 IC50 / BRM IC50): 1.00
COCCN(c1cccc(C2CC2)n1)c1ccc2cnc(CNC(=O)c3ccc4c(c3)S(=O)(=O)CCOC4)cc2n1 [Compound 840]	–	4000 nM	–	Ratio* (BRM; ratio BRG1 IC50 / BRM IC50): 1.25
O=C(NCc1cc2nc(-c3ccc(OC(F)F)cn3)ccc2cn1)c1ccc2c(c1)S(=O)(=O)CCOC2 [Compound 849]	–	606 nM	–	Ratio* (BRM; ratio BRG1 IC50 / BRM IC50): 8.25
